Assay results from PubChem BioAssay (NCI).
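Following 48 hours of exposure in 96-well plates, responses at five concentrations were used to interpolate endpoints linearly. The concentration for 50% growth inhibition is given as GI50. TGI marks complete inhibition of growth.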

Columns and labels:
Experiment in all cases: NCI-60 cell line screen, 48 h
CCRF-CEM leukemia = tested on: CCRF-CEM leukemia
MOLT-4 leukemia = tested on: MOLT-4 leukemia
NCI-H23 lung = tested on: NCI-H23 lung
OVCAR-3 ovarian = tested on: OVCAR-3 ovarian
SK-MEL-28 melanoma = tested on: SK-MEL-28 melanoma
UACC-257 melanoma = tested on: UACC-257 melanoma
NCI-H226 lung = tested on: NCI-H226 lung
SN12C renal = tested on: SN12C renal
786-0 renal = tested on: 786-0 renal
M14 melanoma = tested on: M14 melanoma

Row | Compound | GI50 (CCRF-CEM leukemia) | TGI (CCRF-CEM leukemia) | GI50 (MOLT-4 leukemia) | TGI (MOLT-4 leukemia) | GI50 (NCI-H23 lung) | TGI (NCI-H23 lung) | GI50 (OVCAR-3 ovarian) | TGI (OVCAR-3 ovarian) | GI50 (SK-MEL-28 melanoma) | TGI (SK-MEL-28 melanoma) | GI50 (UACC-257 melanoma) | TGI (UACC-257 melanoma) | TGI (NCI-H226 lung) | TGI (SN12C renal) | TGI (786-0 renal) | TGI (M14 melanoma) | GI50 (M14 melanoma) | GI50 (NCI-H226 lung) | GI50 (SN12C renal)
1 | O=C(CSc1nc2ccccc2[nH]1)Nc1ccc(-c2nc3ccccc3s2)c(Cl)c1 | > 100 µM | > 100 µM | > 100 µM | > 100 µM | 1.88 µM | 4.27 µM | 2.17 µM | 4.55 µM | 2.73 µM | 7.59 µM | 4.08 µM | > 100 µM | – | – | – | – | – | – | –
2 | CCOC(=O)/C(O)=C1\C(=O)N(C)C(=O)C1c1ccc(OC)c(OC)c1 (stereo unspecified) | – | > 100 µM | – | > 100 µM | – | > 100 µM | – | > 100 µM | – | > 100 µM | – | > 100 µM | > 100 µM | > 100 µM | – | – | – | – | –
3 | CCOC(C[Se]CC(OCC)OCC)OCC | – | 95.9 µM | – | > 100 µM | – | > 100 µM | – | > 100 µM | – | > 100 µM | – | > 100 µM | 46.4 µM | – | > 100 µM | > 100 µM | – | – | –
4 | COc1ccc2[nH]c3c(c2c1)CCN(C)CC3 | – | > 100 µM | – | > 100 µM | – | > 100 µM | – | > 100 µM | – | > 100 µM | – | > 100 µM | – | – | > 100 µM | > 100 µM | – | – | –
5 | c1ccc2c(-c3cnc(-c4c[nH]c5ccccc45)cn3)c[nH]c2c1 | – | – | – | – | – | > 100 µM | – | > 100 µM | – | > 100 µM | – | > 100 µM | – | > 100 µM | > 100 µM | > 100 µM | – | – | –
6 | CN(C)C(=S)N/N=C\C=N/NC(=S)N(C)C | – | – | – | – | – | > 58.8 µM | – | > 100 µM | – | > 100 µM | – | > 100 µM | > 81.9 µM | 11.1 µM | > 100 µM | 3.22 µM | – | – | –
7 | CC(C)(C)OC(=O)n1cc(C2CNC(=O)C23CCC(=O)N3Cc2ccccc2)c2ccccc21 (stereo unspecified) | – | 55.7 µM | – | > 100 µM | – | 57.1 µM | – | 46.8 µM | – | – | – | 65.2 µM | 41.4 µM | 32.4 µM | 44.8 µM | 67.4 µM | – | – | –
8 | COc1cccc(N2C(=O)C3c4[nH]c5ccccc5c4C4c5ccccc5CCC4C3C2=O)c1 (stereo unspecified) | – | > 10 µM | – | > 10 µM | – | > 10 µM | – | > 10 µM | – | > 10 µM | – | – | > 7.52 µM | > 10 µM | > 8.35 µM | > 10 µM | – | – | –
9 | O=C(NCCN(CCNC(=O)c1cccc(=O)n1O)CCN(CCNC(=O)c1cccc(=O)n1O)CCNC(=O)c1cccc(=O)n1O)c1cccc(=O)n1O | – | > 100 µM | – | – | – | > 100 µM | – | > 100 µM | – | > 100 µM | – | > 100 µM | > 100 µM | > 100 µM | > 100 µM | > 100 µM | – | – | –
10 | COc1ccc(N2C=Nn3c(nc4sc(C)c(C)c4c3=O)C2)cc1 | – | > 100 µM | – | > 100 µM | – | > 100 µM | – | – | – | > 100 µM | – | > 100 µM | > 100 µM | > 100 µM | > 100 µM | > 100 µM | – | – | –
11 | CC(=O)NCCCCNCCCNC(C)=O | – | > 100 µM | – | > 100 µM | – | > 100 µM | – | – | – | > 100 µM | – | > 100 µM | > 100 µM | > 100 µM | > 100 µM | > 100 µM | – | – | –
12 | C=CC(=O)N1C/C(=C\c2ccc(N(C)C)cc2)C(=O)/C(=C/c2ccc(N(C)C)cc2)C1 | – | – | – | > 100 µM | – | > 100 µM | – | > 100 µM | – | > 100 µM | – | > 100 µM | > 100 µM | > 100 µM | > 100 µM | > 100 µM | – | – | –
13 | N#CC1=C2Sc3ccccc3N2[C@H](c2ccccc2)[C@H]2COC(=O)[C@@H]12 | – | 30.7 µM | – | > 100 µM | – | > 100 µM | – | > 100 µM | – | > 100 µM | – | > 100 µM | > 100 µM | – | > 100 µM | > 100 µM | – | – | –
14 | CC(=O)O[C@H]1CC[C@@]2(C)C(=CC[C@@H]3[C@@H]2CC[C@]2(C)C(c4cccnc4)=CC[C@@H]32)C1 | 16.7 µM | > 100 µM | 6.3 µM | > 100 µM | 6.6 µM | > 100 µM | 5.52 µM | > 100 µM | 3.53 µM | > 100 µM | 28.1 µM | > 100 µM | > 100 µM | > 100 µM | – | > 100 µM | 5.67 µM | 17.7 µM | 17.2 µM
15 | CCCCCc1cc(OC(=O)c2c(O)cc(OC)cc2CCCCC)cc(O)c1C(=O)O | – | 47.8 µM | – | 60 µM | – | 27.1 µM | – | – | – | 32.9 µM | – | – | – | 32.8 µM | 30.3 µM | 38.1 µM | – | – | –
16 | O=C1C(Br)=CC2([N+](=O)[O-])CCNc3c(O)c4c5c(c3C2=C1Br)=NCCC=5C=N4 (stereo unspecified) | – | 1.41 µM | – | – | – | 3.41 µM | – | 0.784 µM | – | 9.95 µM | – | 0.887 µM | 6.79 µM | 5.52 µM | – | – | – | – | –
17 | CCCC/C=C1\CCC(CN2CCCCC2)C1=O (stereo unspecified) | – | 16.2 µM | – | 18.4 µM | – | 45.1 µM | – | 46 µM | – | 36.7 µM | – | 42 µM | 63.1 µM | 25.9 µM | – | 24.4 µM | – | – | –
